Laboratory results published in patent US9168269B2, “Inhibitors of long and very long chain fatty acid metabolism as broad spectrum anti-virals” (THE TRUSTEES OF PRINCETON UNIVERSITY, priority 2010, dated 2015).
Like-named read-outs stand apart in the source and are kept apart here.

Legend:
[1] = system: HCMV AD169 strain; test: microbe, parasite or virus in culture; assay type: cell-based, human cytomegalovirus; settings: for decrease in HCMV virus titer: 96 h after infection; for effect on HCMV replication / yield, in words: concentrations as in the sentence or figure; for reduction of HCMV viral yield: 96 h post infection
[2] = system: late viral protein pUL99; test: HCMV late viral protein expression (pUL99-GFP); assay type: cell-based, human cytomegalovirus
[3] = mice, oral, 10 mg/kg, 2 hours after treatment; cited from earlier work
[4] = system: MRCS human fibroblasts; test: host cell viability, morphology and toxicity in fibroblasts; settings: for toxicity on the cells: at the antiviral doses tested; for appearance of cells: 96 h
Procedure: (§1) Top panels: About 90% confluent MRCS human fibroblasts were treated with the indicated concentrations of triacsin C or the carrier in which the drug was dissolved (DMSO) in the presence of 10% fetal calf serum and photographed 96 h later. Bottom left panel: About 90% confluent MRCS fibroblasts were either mock infected or infected with the AD169 strain of HCMV at a multiplicity of (0.1 pfu/cell). The uninfected or infected cells received DMSO (solvent for the drug) or the drug for 96 h before cells were assayed for viability. Bottom right panel: About 90% confluent MRCS fibroblasts were infected with HCMV at a multiplicity of (0.1 pfu/cell) in the presence of DMSO (0 nM triacsin C) or triacsin C at the indicated concentrations. Infected fibroblasts were maintained in medium containing 10% fetal calf serum. Virus yield in the medium at 96 h after infection was determined by infecting fibrobalsts and assaying IE1 expression by immunofluorescence 24 h later. 96 h after infection, cells were harvested into culture medium and sonicated to release cell-associated virus. Virus yield in the medium was determined by infecting fibroblasts and assaying IE1 expression by immunofluorescence 24 h later.
(§2) The effect of triacsin C on the viability of MRCS human fibroblasts in culture medium containing 10% fetal calf serum was tested. At the time drug was added, cells were about 90% confluent.

[5] = molecular target: hELOVL3 (Homo sapiens, UniProt Q9HB03); settings: in vitro; cited from earlier work
Sequence of hELOVL3 (Q9HB03 whole entry): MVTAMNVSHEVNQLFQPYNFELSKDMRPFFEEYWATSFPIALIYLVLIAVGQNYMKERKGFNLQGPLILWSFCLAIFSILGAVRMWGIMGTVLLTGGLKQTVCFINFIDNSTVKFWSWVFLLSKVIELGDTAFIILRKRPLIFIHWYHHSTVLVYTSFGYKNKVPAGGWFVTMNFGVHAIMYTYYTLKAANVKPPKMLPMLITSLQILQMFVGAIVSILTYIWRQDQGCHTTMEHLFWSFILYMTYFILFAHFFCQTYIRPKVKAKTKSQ

[6] = molecular target: T1, hELOVL6 (Homo sapiens, UniProt Q9H5J4); settings: in vitro, cited from earlier work
T1 sequence (Q9H5J4 1-265): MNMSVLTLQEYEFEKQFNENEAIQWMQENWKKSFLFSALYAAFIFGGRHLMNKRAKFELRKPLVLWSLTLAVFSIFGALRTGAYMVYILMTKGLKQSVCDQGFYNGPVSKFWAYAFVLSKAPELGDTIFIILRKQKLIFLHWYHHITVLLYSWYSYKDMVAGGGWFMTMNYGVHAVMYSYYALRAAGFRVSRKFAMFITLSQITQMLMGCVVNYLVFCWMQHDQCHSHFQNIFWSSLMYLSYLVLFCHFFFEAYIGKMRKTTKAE

[7] = system: MRCS human fibroblasts
Procedure: as §1, §2

[8] = system: Liquid Droplet; settings: read-out: Liquid Droplet inhibition IC50; cited from earlier work
[9] = system: adenovirus type 5; test: adenovirus replication in fibroblasts; assay type: cell-based; settings: for effect on adenovirus replication, in words: indicated amounts of drug; for decrease in adenovirus replication / titer: MOI 1, 72 h
[10] = system: atherosclerosis; settings: oral, 10 mg/kg/day, two months, cited from earlier work
[11] = system: ACSLs; settings: rat liver cell sonicates; cited from earlier work
[12] = system: triacylglycerol (TG) synthesis; settings: cited from earlier work
[13] = system: HCV JFH1 strain derivative; test: release of infectious HCV from Huh7.5 cells, TCID50 assay
Procedure: Huh7.5 cells were infected with a derivative of HCV JFH1 strain (MOI=0.1 TCID50/cell). Infected cells were maintained in medium containing 10% fetal calf serum plus DMSO (0 nM triacsin C) or triacsin C at the indicated concentrations. Media were harvested at 72 h and infectious virus was quantified by standard TCID50 assay on Huh7.5 cells.
Virus yield in the medium at 72 h after infection was determined.
Huh7.5 cells were infected a derivative of HCV JFH1 strain (MOI=0.1 TCID50/cell) Infected cells were maintained in medium containing 10% fetal calf serum plus DMSO (0 μg/ml TOFA) or TOFA at the indicated doses. Media were harvested at 72 h and infectious virus was quantified by standard TCID50 assay on Huh7.5 cells.
Huh7.5 cells which was infected with HCV and treated with indicated amounts of TOFA (FIG. 21).

[14] = system: lipid droplets in HCMV infected cells; test: lipid droplets by oil red O staining; assay type: cell-based, human
Source text: A pair of related enzymes that are both required for HCMV replication are ADP-ribosyltransferase 1 and 3 (ART1 and ART3). Inhibition of either of these enzymes led to a marked reduction in HCMV replication, ˜40-fold for ART1 and ˜10-fold for ART3. Without being bound by any particular mechanism, although ADP-ribosyltransfer is not per se a reaction of lipid metabolism, ADP ribosylation plays a key role in regulating lipid storage via targets including the protein CtBP1/BARS. Mono-ADP ribosylation of this protein results in loss of lipid droplets due to a dramatic efflux of fatty acids.
Thus host cell components involved in lipid droplet production and consumption provide antiviral targets. In addition to siRNA against the relevant cellular machinery, other means of inhibiting lipid droplet formation include the compounds spylidone, PF-1052 (a fungal natural product isolated from Phoma species), vermisporin, beauveriolides, phenochalasins, isobisvertinol, K97-0239, and rubimaillin.
Lipid droplet formation and depletion is associated with HCMV infection. At early phase of infection (2-12 hours after infection) lipid droplets are induced within the infected cells and thereafter, a complete loss of lipid droplets is observed (48-72 hours after infection).

[15] = system: cholesterol ester (CE) synthesis; settings: cited from earlier work
[16] = system: HSV-1; test: HSV-1 replication in fibroblasts; assay type: cell-based, herpes simplex virus type 1; settings: for effect on HSV-1 growth, in words: indicated amounts of drug
[17] = system: influenza A strain WSN/33; test: influenza A replication in fibroblasts; assay type: cell-based; settings: for effect on influenza A growth, in words: indicated amounts of drug
[18] = system: ACAT; settings: cited from earlier work
[19] = system: MDCK cells
Procedure: Bottom panel: Approximately 90% confluent MDCK cells were infected with WSN/33 at a multiplicity of (0.001 pfu/cell) in the presence of PBS (0 mM) or AOAA at the indicated concentrations. Virus yield in the medium at indicated times after infection was determined by standard plaque assay on MDCK cells.
Replication of influenza A (WSN/33 strain) was measured in MDCK cells at a multiplicity of infection of 0.001 particle forming unit per cell.

[20] = system: HCMV; test: siRNA screen, infectious yield of HCMV; settings: enzyme knockdown by siRNA; fibroblasts, HCMV 0.1 pfu/cell, 96 h
Procedure: To identify host cell enzymes whose inhibition could decrease the production of virus progeny, an siRNA screen was performed to test for roles of specific enzymes involved directly or indirectly in lipid metabolism. The siRNA screen was designed to test for effects of inhibiting specific siRNA targets on the infectious yield of HCMV. The screen was performed in 96-well plates using a portion of an siRNA library purchased from Sigma. Each target was assayed with three different siRNAs.
Also at 96 h after infection, the medium was removed from each well and used to infect fibroblasts in a new 96-well plate, and infectivity was quantified by staining for immunofluorescence and counting IE1-positive cells 24 h later.

[21] = system: Liver ACAT; settings: cited from earlier work
[22] = system: ELOVL6; settings: 'in vivo' as printed; cited from earlier work
[23] = system: ELOVL3; settings: 'in vivo' as printed; cited from earlier work

Cc1[nH]n(-c2ccc(OC(F)(F)F)cc2)c(=O)c1C1(C(F)(F)F)C(=O)N(c2ccccc2)C2=C1C(=O)CC(C)(C)C2 (centres unmarked) [Compound 37]
inhibition of HCMV replication ([1]; 35 μM): > 10 fold | HCMV virus yield ([1]; 70 μM): undetectable levels | HCMV late pUL99 expression, in words [2]: substantially reduced | liver level [3]: 50 µM | plasma level [3]: 30 µM | toxicity on the cells [4]: Without inducing any toxicity | IC50 [5]: ~337 nM

O=C(Nc1ccc(C(F)(F)F)cc1)N1C2CCC1CC(S(=O)(=O)c1ccccc1)C2 (stereo not drawn) [endo-1k]
IC50 ([6]; read-out: hELOVL6 IC50): ~78 nM | toxicity on the cells [7]: Without inducing any toxicity | inhibition of HCMV replication ([1]; 50 μM): ~400 fold | HCMV late pUL99 expression, in words [2]: dramatically reduced

O=C(Nc1ccc(C(F)(F)F)cc1)N1C2CCC1CC(S(=O)(=O)c1ccccn1)C2 (stereo not drawn) [endo-1w]
IC50 ([6]; read-out: hELOVL6 IC50): ~78 nM | IC50 ([6]; read-out: human ELOVL6 IC50): ~6900 nM

COC(=O)c1c2c(c3ccccc3c1O)OC(C)(C)C=C2 [rubimaillin]
decrease in HCMV virus titer ([1]; 5 μM): approximately 85% | reduction of HCMV replication ([1]; 10 μM): > 80%

CCCCCCCN(Cc1ccc(CCC(C)C)cc1)C(=O)Nc1c(F)cc(F)cc1F [CL-283,546]
IC50 [8]: 35 nM

CCC/C=C/C/C=C/C=C/C=N/NN=O [triacsin C]
effect on adenovirus replication, in words [9]: not | progression of atherosclerosis ([10]; LDLR-/- mice): significantly inhibited | toxicities ([10]; mice): no significant toxicities noted | IC50 [11]: ~8700 nM | reduction of yield of infectious HCMV ([1]; 50 nM, presence of serum): > 8 fold | reduction of yield of infectious HCMV, factor ([1]; 250 nM, added with virus, 96 h, 10% serum): 85 | effect on HCMV replication / yield, in words [1]: substantially inhibited | inhibition of HCMV replication ([1]; nanomolar concentrations): > 10 fold | IC50 [12]: 100 nM | release of infectious HCV particles, in words ([13]; indicated amounts of drug, 72 h): significantly reduced | depletion of lipid droplets ([14]; 100 nM): > 90% | lipid droplets by oil red O staining ([14]; 250 nM): no detectable lipid droplets | lipid droplet formation induced by HCMV infection ([14]; HFF cells): reduced lipid droplet formation | IC50 [15]: 190 nM | viability of MRC-5 fibroblasts ([4]; 50 nM, presence of serum): without discrenably impacting | appearance of cells ([4]; 100 or 250 nM, 10% fetal calf serum): did not alter the appearance of cells | cell viability ([4]; absence of fetal calf serum, doses up to 10 μM): no discernable impact | cell viability ([4]; doses of ≦500 nM, 10% fetal calf serum): little effect | appearance of cells ([4]; ≦500 nM, 10% fetal calf serum): some cell rounding | effect on HSV-1 growth, in words [16]: substantially inhibited | inhibition of HSV-1 replication ([16]; nanomolar concentrations): > 10 fold | effect on influenza A growth, in words [17]: substantially inhibited | inhibition of influenza A replication ([17]; nanomolar concentrations): > 10 fold

CC(C)c1cc(C(C)C)c(CC(=O)NS(=O)(=O)Oc2c(C(C)C)cccc2C(C)C)c(C(C)C)c1 [Avasimibe]
IC50 [18]: 479 nM

NOCC(=O)O [AOAA, aminooxyacetic acid]
decrease in adenovirus replication / titer ([9]; 0.5 mM): 20 fold | decrease in adenovirus replication / titer ([9]; 1 mM): 500 fold | host cell toxicity by light microscopy [19]: no evidence of host cell toxicity | decrease in HCMV replication ([1]; 0.5 mM): 100 fold

STX8 (sense GACUACUUCUGGCAUCCUUTT; antisense AAGGAUGCCAGAAGUAGUCTT; chemistry not given here)
Fold reduction of HCMV replication [20]: 1.96 fold

COc1cccc(C2(CNC(=O)Nc3c(C(C)C)cc(N)cc3C(C)C)CCN(c3ccccc3C)CC2)c1 [Compound 12g]
IC50 [18]: 68 nM

Cc1cc(NC(=O)[C@@H]2Cc3ccc(N(C)C)cc3CN2C(=O)C(C)C)c(C)c(C)c1O [Compound 21]
IC50 [21]: 113 nM

CCC(C)(C)C(=O)O[C@H]1C[C@@H](C)C=C2C=C[C@H](C)[C@H](CC[C@@H]3C[C@@H](O)CC(=O)O3)[C@H]21 [simvastatin]
decrease in HCMV virus titer ([1]; 5 μM): approximately 90%

CCC(C)[C@@H]1C(=O)/C(=C(/O)[C@@H]2[C@@H]3[C@H](C)C[C@H](C)C[C@@H]3C=C[C@@H]2[C@]2(C)O[C@H]2C)C(=O)N1C (some centres unmarked) [PF-1052]
effect on adenovirus replication, in words [9]: not and not inhibited | reduction of HCMV viral yield ([1]; 5 μM): > 50 fold | reduction of HCMV yield, prolonged treatment ([1]; 5 μM, medium replaced daily, 10 days after infection): > 5000 fold | reduction of HCMV viral yield ([1]; 10 μM): > 300 fold | effect on HCMV replication / yield, in words [1]: profoundly inhibits | HCMV late pUL99 expression, in words [2]: markedly reduced | inhibition at 10 µM ([2]; Human betaherpesvirus 5, 10 μM, read-out: inhibition of HCMV late protein synthesis): > 99% | inhibition of release of infectious HCV particles ([13]; 5 μM): 10 fold | inhibition of release of infectious HCV particles ([13]; 10 μM): > 100 fold | host cell toxicity by light microscopy ([4]; 5 and 10 μM): no evidence of host cell toxicity | effect on HSV-1 growth, in words [16]: substantially inhibited | effect on influenza A growth, in words [17]: substantially inhibited

STX6 (sense CAAGUUGUCAGGGACAUGATT; antisense UCAUGUCCCUGACAACUUGTT; chemistry not given here)
Fold reduction of HCMV replication [20]: 1.92 fold

CCCCn1c(=O)c(NC(=O)Nc2c(C(C)C)cc(N)cc2C(C)C)c(-c2cccc(OCCCO)c2)c2cccnc21 [SMP-797]
IC50 [18]: 31 nM

CC(C)=CCc1c([C@H](O)C2OC2(C)C)ccc2[nH]c3c(c12)C[C@@H]1CC[C@@]2(O)C(C)(C)C(=O)CC[C@]2(C)[C@@]31C (some centres unmarked) [Sespendole]
IC50 [8]: 4000 nM

O=C1Nc2ccc(-c3ccn[nH]3)cc2[C@](CNC(=O)c2ccc(F)cc2)(C(F)(F)F)O1 [(S)-1y]
inhibition of HCMV replication ([1]; 25 μM): ~40 fold | inhibition of HCMV replication ([1]; 50 μM): > 1000 fold | HCMV late pUL99 expression, in words [2]: dramatically reduced | IC50 [22]: 169 nM | IC50 [23]: > 5000 nM | toxicity on the cells [4]: Without inducing any toxicity | IC50 [5]: ~130 nM

CC(c1cc2ccccc2s1)N(O)C(N)=O (centres unmarked) [zileuton]
reduction of HCMV replication ([1]; 100 μM): ~90%

N=C(N)NCc1cccc([131I])c1 [MIBG, meta-iodo-benzylguanidine]
inhibition of HCMV replication ([1]; 100 μM, fibroblasts): 13 fold | HCMV-induced accumulation and depletion of lipid droplets ([14]; 100 μM): blocked

CC(=O)Nc1nnc(S(N)(=O)=O)s1 [acetazolamide]
inhibition at 25 µM ([1]; Human betaherpesvirus 5, AD169, Fibroblast, read-out: inhibition of HCMV replication): ~80%

CCCCCCCCN1CCc2c(C)c(CC(=O)O)c(C)c(NC(=O)C(C)(C)C)c21 [Pactimibe]
IC50 [21]: 312 nM

CC(C)=C[C@H]1O[C@H]2[C@H]3O[C@@]34[C@H](CC[C@@]3(C)[C@@]4(O)CC[C@H]4Cc5c([nH]c6ccccc56)[C@@]43C)O[C@@H]2C(C)(C)O1 [Terpendole C]
IC50 [8]: 2500 nM

CCC(C)[C@@H]1C(=O)C2(C[C@@H]3[C@@H]4[C@H](C)C[C@H](C)C[C@@H]4C=C[C@@H]3[C@](C)(O)[C@H]2C)C(=O)N1C (some centres unmarked) [Spylidone]
IC50 [8]: 42000 nM
